Measured values taken from publication PMC6348444, “New Water-Soluble Copper(II) Complexes with Morpholine–Thiosemicarbazone Hybrids: Insights into the Anticancer and Antibacterial Mode of Action” (Journal of Medicinal Chemistry, 2018).
In brackets after ≈: the same amount, converted by molar mass. Where two headings read alike, the source gives them in different places.

Experiments:
[1] = system: Staphylococcus aureus CECT 86 (ATCC 12600); experiment: MIC microdilution, S. aureus; assay type: cell-based; conditions: planktonic cells; for MIC50 / MIC: Staphylococcus aureus; for MIC50 / S. aureus MIC50: growth inhibited at 50%; for MIC / S. aureus MIC100: lowest concentration completely inhibiting growth; for MIC: read-out: S. aureus MIC100
Protocol: (§1) Wild-type P. aeruginosa PAO1 strain CECT 4122 (ATCC 15692) and S. aureus CECT 86 (ATCC 12600) were obtained from the Spanish Type Culture Collection (CECT). All strains were routinely cultivated in TSB medium (Sharlab, Spain) at 37 °C. MIC assays were determined by the microdilution method using TSB broth following the method described by the Clinical and Laboratory standards Institute.[94] In brief, compounds were diluted in a 96-well microtiter plate (tissue culture-treated polystyrene; […]

[2] = system: Pseudomonas aeruginosa PAO1 CECT 4122 (ATCC 15692); experiment: MIC microdilution, P. aeruginosa; assay type: cell-based; conditions: planktonic cells; for MIC50 / MIC: Pseudomonas aeruginosa; for MIC50 / P. aeruginosa MIC50: growth inhibited at 50%; for MIC / P. aeruginosa MIC100: lowest concentration completely inhibiting growth; for MIC: read-out: P. aeruginosa MIC100
Protocol: as §1

A2780 cells [3] = experiment: MTT cytotoxicity assay, A2780; assay type: cell-based, human
A2780cisR cells = experiment: MTT cytotoxicity assay, A2780cisR; assay type: cell-based, human; conditions: for IC50: MTT assay, 72 h exposure, cisplatin-resistant A2780cisR, read-out: IC50 A2780cis; for RF (resistance factor): IC50(A2780cisR)/IC50(A2780)
HEK293 cells = experiment: MTT cytotoxicity assay, HEK293; assay type: cell-based, human; conditions: for IC50: MTT assay, 72 h exposure, noncancerous cells; for SF (selectivity factor): IC50(HEK293)/IC50(A2780)
[4] = n-octanol/water distribution coefficient, shake-flask; assay type: physicochemical; conditions: n-octanol/buffered aqueous solution, pH 7.40, UV-vis; for logD: pH 7.4, read-out: log D7.4
Protocol: The titrations were carried out under a nitrogen atmosphere.

[5] = T = 298 K, I = 0.10 M (KCl)
A2780 cells [6] = experiment: Cellular accumulation of Cu by ICP-MS; assay type: cell-based, human; conditions: 24 h exposure, 1 μM
Excerpt: The ability of anticancer drugs to penetrate biological membranes, tissues, and barriers underlies their biological, pharmacokinetic, and metabolic properties. These properties can be predicted by calculating physicochemical characteristics of drug candidates using molecular descriptors.[30] […] The results are shown in Table S7 in the Supporting Information. On the basis of the calculated physicochemical parameters, we determined if novel compounds belonged to the drug-like chemical space, which is commonly defined by the well-known Lipinski rule, or to the known drug space (KDS), which includes all small compounds in medical use.[31] […] Following the calculations, we determined the lipophilicity of all compounds experimentally (log D7.4, Tables 1 and 2). It is known that cancer cells accumulate hydrophilic compounds to a smaller extent relative to hydrophobic compounds, thereby affecting their activity. […] As expected, proligands were more lipophilic than the corresponding Cu(II) species, which are positively charged at physiological pH (Figure 3b). […] The lipophilicity of 2–5 increased in the following order 4 < 2 < 3 < 5, and correlated well with their cytotoxicity in cancer cells, with the exception of 3. Subsequently, we determined the total cellular accumulation of Cu in A2780 cells by ICP–MS upon 24 h exposure to 1–6 in comparison with CuCl2 (Table 2). […] The accumulation increased in the order 6 < 1 < 3 < 4 < 2 < 5.
Cellular accumulation of 1–6 was determined in A2780 cells. Cells were seeded into Cellstar 6-well plates (Greiner Bio-one) at a density of 60 × 10^4 cells/well (2 mL per well). After the cells were allowed to resume exponential growth for 24 h, they were exposed to 1–6 at 1 μM for 24 h at 37 °C. The cells were washed twice with 1 mL of PBS and lysed with RIPA lysis buffer for 5–10 min at 4 °C. The cell lysates were scraped from the wells and transferred to separate 1.5 mL microtubes. The supernatant was then collected after centrifugation (13 000 rpm, 4 °C for 15 min) and total protein content of each sample was quantified via Bradford’s assay. Cell lysates were transferred to 2 mL glass vials and then digested with ultrapure 65% HNO3 at 100 °C for 24 h. The resulting solution was diluted to 1 mL (2–4% v/v HNO3) with ultrapure Milli-Q water. Cu content of each sample was quantified by ICP–MS. In was used as an internal standard. Cu and In were measured at m/z 64 and m/z 115, respectively. Metal standards for calibration curve (0, 0.5, 1, 2, 5, 10, 20, and 40 ppb) were freshly prepared before each measurement. All readings were made in triplicates in He mode. For temperature-dependent cellular accumulation experiments, A2780 cells were seeded into 35 n 10 mm tissue culture plates at a density of 60 0 10^4 cells/plate. After the cells were allowed to resume exponential growth for 24 h, they were exposed to 2 at 3 μM for 10, 30, 60, and 120 min at 37 and 4 °C. The subsequent analysis was performed as described above. For energy-dependent experiments, A2780 cells were seeded into 35 5 10 mm tissue culture plates at a density of 1 0 10^6 cells/plate. After the cells were allowed to resume exponential growth for 24 h, they were preincubated with oligomycin (5 μM) for 1 or 4 h or with cycloheximide (100 μM) for 4 h and further co-incubated with 3 μM of 2 at 37 °C. To induce total starvation, after the cells were allowed to resume exponential growth for 24 h, RPMI media was replaced with HBSS, and cells were preincubated in HBSS for 1 h and further incubated with 3 μM of 2 for 1 h at 37 °C. The subsequent analysis was performed as described above.

[7] = Cyclic voltammetry, redox potentials; assay type: physicochemical; conditions: first reduction step
Protocol: To assess the redox properties of 1-6, detailed electrochemical and spectroscopic studies in various solvents were performed using cyclic voltammetry as well as EPR-spectroelectrochemistry. Additionally, the UV-vis spectra of 1-5 were measured (Figure S8). […] The second reduction step occurred at -1.8 V versus Fc^+/Fc (-1.16 V vs NHE) and was less reversible, indicating a ligand-based reduction. […] In aqueous solutions, the reduction potentials shifted to the less negative values, and reduction was less reversible as shown for 2 in Figure S10. […] Cyclic voltammetric experiments were performed as described previously.[46] The cyclic voltammograms were measured in the cathodic region in different solvents (DMSO, methanol, DMSO/H2O). The analytical purity grade LiClO4 (Sigma-Aldrich) and distilled and deionized water were used for preparation of 1 mM aqueous solutions of the investigated complexes 1-6. EPR spectra were recorded with the EMX plus. In situ UV-vis-NIR spectroelectrochemical measurements were performed on a spectrometer (Avantes, Model AvaSpec-2048x14-USB2 in the spectroelectrochemical cell kit ([…]3)) with the Pt-microstructured honeycomb working electrode, purchased from Pine Research Instrumentation. The cell was positioned in the CUV-UV Cuvette Holder (Ocean Optics) connected to the diode-array UV-vis-NIR spectrometer by optical fibers. UV-vis-NIR spectra were processed using the AvaSoft 7.7 software package. Halogen and deuterium lamps were used as light sources (Avantes, Model AvaLight-DH-S-BAL). The in situ EPR spectroelectrochemical experiments were carried out under an argon atmosphere in the EPR flat cell equipped with a large platinum mesh working electrode. The freshly prepared solutions were carefully purged with argon and the electrolytic cell was polarized in the galvanostatic mode directly in the cylindrical EPR cavity TM-110 (ER 4103 TM), and the EPR spectra were measured in situ.

[8] = Homo sapiens, A2780, 72 h exposure

## O=C(O)c1cn(C2CC2)c2cc(N3CCNCC3)c(F)cc2c1=O [CPX, ciprofloxacin, reference compound]
[1]
  MIC50: 0.5 µg/mL (≈ 1.51 µM)
  MIC: 1 µg/mL (≈ 3.02 µM)
[2]
  MIC50: 0.5 µg/mL (≈ 1.51 µM)
  MIC: 2 µg/mL (≈ 6.04 µM)

## NC(=S)NN=Cc1ccc(CN2CCOCC2)cn1 [HL^1, 5-(Morpholinomethyl)pyridine-2-carboxaldehyde Thiosemicarbazone]
A2780 cells [3]; [8]
  IC50: 7.6 ± 1.9 µM
A2780cisR cells; Homo sapiens
  IC50: 13 ± 1 µM
HEK293 cells; Homo sapiens, HEK293
  IC50: 9.1 ± 1.7 µM
[4]
  logD: 0.46
[1]
  MIC50: 100 µg/mL (≈ 358 µM)
  MIC: > 400 µg/mL
[2]
  MIC50: > 500 µg/mL
  MIC: > 500 µg/mL

## CN(C)C(=S)N/N=C/c1ccc(CN2CCOCC2)cn1 [HL^2, 5-(Morpholinomethyl)pyridine-2-carboxaldehyde 4,4-Dimethyl-3-thiosemicarbazone]
A2780 cells [3]; [8]
  IC50: 0.01 ± 0.001 µM
A2780cisR cells; Homo sapiens
  IC50: 0.035 ± 0.006 µM
HEK293 cells; Homo sapiens, HEK293
  IC50: 0.03 ± 0.005 µM
[4]
  logD: 0.51
[1]
  MIC50: 10 µg/mL (≈ 32.5 µM)
  MIC: 400 µg/mL (≈ 1300 µM)
[2]
  MIC50: 70 µg/mL (≈ 228 µM)
  MIC: 100 µg/mL (≈ 325 µM)

## S=C(NN=Cc1ccc(CN2CCOCC2)cn1)Nc1ccccc1 [HL^5, 5-(Morpholinomethyl)pyridine-2-carboxaldehyde 4-Phenylthiosemicarbazone]
A2780 cells [3]; [8]
  IC50: 0.31 ± 0.08 µM
A2780cisR cells; Homo sapiens
  IC50: 1.1 ± 0.2 µM
HEK293 cells; Homo sapiens, HEK293
  IC50: 0.67 ± 0.06 µM
[4]
  logD: ≥ 2
[1]
  MIC50: 10 µg/mL (≈ 28.1 µM)
  MIC: 300 µg/mL (≈ 844 µM)
[2]
  MIC50: > 500 µg/mL
  MIC: > 500 µg/mL

## CSC(=N)NN=Cc1ccc(CN2CCOCC2)cn1 [HL^6, 5-(Morpholinomethyl)pyridine-2-carboxaldehyde S-Methylisothiosemicarbazone]
A2780 cells [3]; [8]
  IC50: 157 ± 21 µM
A2780cisR cells; Homo sapiens
  IC50: 426 ± 44 µM
HEK293 cells; Homo sapiens, HEK293
  IC50: 89 ± 2 µM
[4]
  logD: 0.84
[1]
  MIC50: > 500 µg/mL
  MIC: > 500 µg/mL
  S. aureus MIC50: >500 µg/mL
[2]
  MIC50: > 500 µg/mL
  MIC: > 500 µg/mL

## NC(=NN=Cc1ccc(CN2CCOCC2)cn1)[S][Cu][OH] [[CuLH41]]
[5]; EPR
  logβ: 10.22(1)
[5]; UV-vis via CT bands
  logβ: 10.42(1)
[5]; UV-vis via d-d bands
  logβ: 10.45(1)
[5]; pH-metry
  logβ: 10.45(4)

## NC(=NN=Cc1ccc(C[NH+]2CCOCC2)cn1)[S][Cu+] [[CuLH]2+]
[5]; EPR
  logβ: 24.00(1)
[5]; UV-vis via CT bands
  logβ: 24.00(1)
[5]; UV-vis via d-d bands
  logβ: 23.96(1)
[5]; pH-metry
  logβ: 24.09(3)

## NC(=NN=Cc1ccc(CN2CCOCC2)cn1)[S][Cu+] [[CuL]+]
[5]; determined via EDTA displacement study
  logβ: 19.04(2)

## N.N.[Cl][Pt][Cl] [cisplatin, reference compound]
A2780 cells [3]; 72 h exposure
  IC50: 0.44 ± 0.13 µM
A2780cisR cells
  RF (resistance factor): 10.5
  IC50: 4.6 ± 0.3 µM

## [Cl][Cu][S]C(=NN=Cc1ccc(CN2CCOCC2)cn1)N1CCOCC1 [complex 4, [Cu(L^4)Cl]]
A2780 cells [3]; 72 h exposure
  IC50: 0.08 ± 0.01 µM
A2780cisR cells
  RF (resistance factor): 3.3
  IC50: 0.26 ± 0.04 µM
HEK293 cells
  SF (selectivity factor): 3.0
  IC50: 0.24 ± 0.02 µM
[4]
  log D7.4: +0.12 ± 0.01
A2780 cells [6]
  cellular accumulation A2780: 3.2 ± 0.7 nmol Cu/mg protein
[1]
  S. aureus MIC50: 5 µg/mL
  S. aureus MIC100: 10 µg/mL
[2]
  P. aeruginosa MIC50: 100 µg/mL
  P. aeruginosa MIC100: 400 µg/mL
[7]; DMSO, vs Fc+/Fc
  E1/2 Red1 (DMSO) vs Fc+/Fc: –0.80 V
[7]; DMSO, vs NHE (in brackets)
  E1/2 Red1 (DMSO) vs NHE: –0.16 V
[7]; MeOH, vs Fc+/Fc
  E1/2 Red1 (MeOH) vs Fc+/Fc: –0.49 V
[7]; MeOH, vs NHE (in brackets)
  E1/2 Red1 (MeOH) vs NHE: +0.15 V

## CSC(=NN=Cc1ccc(CN2CCOCC2)cn1)[NH][Cu][Cl] [complex 6, [Cu(L^6)Cl]]
A2780 cells [3]; 72 h exposure
  IC50: 43 ± 3 µM
A2780cisR cells
  RF (resistance factor): 1.4
  IC50: 62 ± 6 µM
HEK293 cells
  SF (selectivity factor): 1.7
  IC50: 72 µM
[4]
  log D7.4: –0.23 ± 0.01
A2780 cells [6]
  cellular accumulation A2780: 0.47 ± 0.08 nmol Cu/mg protein
[1]
  S. aureus MIC100: NA (NA denotes no antibacterial activity detected (>500 μg/mL))
[2]
  P. aeruginosa MIC50: 200 µg/mL
  P. aeruginosa MIC100: NA (NA denotes no antibacterial activity detected (>500 μg/mL))
